For assay [1], the species on record is Cavia porcellus. Put plainly: Compound was tested for percent change in heart rate in isolated guinea pig atrium.
The species entered for assay [2] is Cavia porcellus. Put plainly: Negative inotropic potency as decrease in the developed tension in isolated guinea pig left artium.
The species named for assay [3] is Cavia porcellus. Put plainly: Compound was tested for percent change in coronary perfusion pressure in isolated guinea pig atrium.
The species named for assay [4] is Cavia porcellus. Put plainly: Compound was tested for percent change in atrioventricular conduction time in isolated guinea pig atrium.
The species named for assay [5] is Cavia porcellus. Description: Negative inotropic activity as decrease in the developed tension in isolated guinea pig left artium at 10E-6 M (n=4-6).
The species entered for assay [6] is Cavia porcellus. Description: Compound was tested for percent change in maximal rate of the rise in left ventricular pressure in isolated guinea pig atrium.
The species named for assay [7] is Cavia porcellus. Description: Vasorelaxant activity determined by percentage inhibition of calcium-induced contraction on K+ depolarized guinea pig aortic strip at 5x10E-5 M.
Assay [8] is filed under the species Cavia porcellus. Put plainly: Negative chronotropic activity was determined as percent decrease in the artial rate in spontaneously beating guinea pig artium at 10E-5 M (n=6-8).
Assay [9] is filed under the species Cavia porcellus. Put plainly: Negative inotropic activity as decrease in the developed tension in isolated guinea pig left artium at 5x10E-5 M (n=4-6).
For assay [10], the species on record is Cavia porcellus. Put plainly: Vasorelaxant activity determined by percentage inhibition of calcium-induced contraction on K+ depolarized guinea pig aortic strip.
The species entered for assay [11] is Cavia porcellus. Description: Negative chronotropic activity was determined as percent decrease in the artial rate in spontaneously beating guinea pig artium at 5x10E-5 M (n=6-8).
For assay [12], the species on record is Cavia porcellus. Description: Negative inotropic activity as decrease in the developed tension in isolated guinea pig left artium at 10E-5 M (n=4-6).
The species entered for assay [13] is Cavia porcellus. Description: Negative inotropic activity as decrease in the developed tension in isolated guinea pig left artium 5x10E-5 M (n=4-6).
The species entered for assay [14] is Cavia porcellus. Description: Negative inotropic activity as decrease in the developed tension in isolated guinea pig left artium at 5x10E-5 M (n=4-6). The source holds these as a separate data set.
Assay [15] is filed under the species Cavia porcellus. Description: Negative inotropic activity as decrease in the developed tension in isolated guinea pig left artium 10E-6 M (n=4-6).
The species named for assay [16] is Cavia porcellus. Description: Negative inotropic activity as decrease in the developed tension in isolated guinea pig left artium at 5x10E-6 M (n=4-6).
Assay [17] is filed under the species Cavia porcellus. Put plainly: Negative inotropic potency as coronary perfusion pressure in isolated guinea pig atrium. The note with it: Cardiac atrium.
Assay [18] is filed under the species Cavia porcellus. Put plainly: Negative inotropic potency as maximal rate of the rise in left ventricular pressure in isolated guinea pig atrium. The note with it: Cardiac atrium.
For assay [19], the species on record is Cavia porcellus. Put plainly: Negative inotropic activity as decrease in the developed tension in isolated guinea pig left artium at 10E-5 M (n=4-6). This is another data set of the same source.
Assay [20] is filed under the species Cavia porcellus. Put plainly: Negative inotropic potency is determined by decrease in the developed tension on isolated left ventricular papillary muscle (n=5-7). Conditions: Muscle tissue.
The species named for assay [21] is Cavia porcellus. Put plainly: Selectivity ratio against negative inotropic potency on left atrium to that of negative inotropic potency on left ventricular papillary muscle in guinea pig.
Assay [22] is filed under the species Cavia porcellus. Description: Negative chronotropic activity was determined as percent decrease in the artial rate in spontaneously beating guinea pig artium at5x10E-5 M (n=6-8).

In general, EC50 refers to the concentration at which the effect is half-maximal. Read a high EC50 as lower potency in that assay. As to `CCO[C@@]1(c2ccc(Br)cc2)SC=C(C)n2c1noc2=O`, the Change in the assay listed under Cavia porcellus [1] is on record as -9%; in the assay filed under Cavia porcellus [3], 32%; in the assay filed under Cavia porcellus [4], -3%; in the assay filed under Cavia porcellus [6] it was -14%. This molecule also had an EC50 in the assay listed under Cavia porcellus [2] of 0.04 µM. The Decrease in the assay listed under Cavia porcellus [5] turned out to be 77%; in the assay listed under Cavia porcellus [7], 19%; in the assay listed under Cavia porcellus [8], 5%.
As to `CCCCCCCCCCCCCCCO[C@@]1(c2ccc(Br)cc2)SC=C(C)n2c1noc2=O`, the EC50 in the assay listed under Cavia porcellus [2] is 0.42 µM. In addition, the Decrease in the assay filed under Cavia porcellus [9] was found to be 75%; in the assay listed under Cavia porcellus [10], 4%; in the assay filed under Cavia porcellus [11], 12%.
For the molecule `CC1=CSC(OC(C)C)(c2ccc(Br)cc2)c2noc(=O)n21` (stereo unspecified), the concentration giving a half-maximal response (EC50) in the assay listed under Cavia porcellus [2] worked out at 0.27 µM. Also, the Decrease in the assay listed under Cavia porcellus [12] was 58%; in the assay filed under Cavia porcellus [7] it was 18%; in the assay filed under Cavia porcellus [11], 4%.
Turning to `CCCCCCCCCCCCOC1(c2ccc(Cl)cc2)SC=C(C)n2c1noc2=O` (stereo unspecified), in the assay listed under Cavia porcellus [2], the EC50 turned out to be 0.87 µM. Besides, the Decrease came out at 56% in the assay filed under Cavia porcellus [13], 5% in the assay listed under Cavia porcellus [7] and 5% in the assay filed under Cavia porcellus [11].
`CCCCCOC1(c2ccc(Cl)cc2)SC=C(C)n2c1noc2=O` (stereo unspecified): the values for the Decrease in the assay filed under Cavia porcellus [14], in the assay filed under Cavia porcellus [7] and in the assay filed under Cavia porcellus [11] were 45%, 15% and 14%, respectively.
As for `COC1(c2ccc(Br)cc2)SC=C(C)n2c1noc2=O` (stereo unspecified), the Decrease in the assay listed under Cavia porcellus [15] stood at 38%; in the assay listed under Cavia porcellus [7], 13%; in the assay listed under Cavia porcellus [8], 9%.
Consider `CC1=CS[C@@](OC(C)C)(c2ccc(Cl)cc2)c2noc(=O)n21`, for which the EC50 in the assay listed under Cavia porcellus [2] worked out at 0.22 µM. Also, the Decrease was 64% in the assay listed under Cavia porcellus [16], 10% in the assay listed under Cavia porcellus [7] and 10% in the assay listed under Cavia porcellus [11].
As to `COc1ccc([C@@H]2Sc3ccccc3N(CCN(C)C)C(=O)[C@@H]2OC(C)=O)cc1` [DILTIAZEM], the Change in the assay filed under Cavia porcellus [1] is given as -25%; in the assay filed under Cavia porcellus [3], -51%; in the assay listed under Cavia porcellus [4], 34%; in the assay filed under Cavia porcellus [6], -59%. Further, the EC50 in the assay listed under Cavia porcellus [17] was 0.0219 µM; in the assay filed under Cavia porcellus [2] it was 0.79 µM; in the assay filed under Cavia porcellus [18], 0.00933 µM; in the assay filed under Cavia porcellus [20], 1.61 µM. Further, the Decrease in the assay filed under Cavia porcellus [19] was 78%; in the assay listed under Cavia porcellus [7] it was 88%; in the assay listed under Cavia porcellus [11], 94%. Moreover, the Selectivity in the assay listed under Cavia porcellus [21] is reported as 2.04.
Turning to `CCCOC1(c2ccc(Br)cc2)SC=C(C)n2c1noc2=O` (stereo unspecified), in the assay listed under Cavia porcellus [2], the EC50 came out at 0.41 µM. In addition, the Decrease is 69% in the assay listed under Cavia porcellus [9], 14% in the assay listed under Cavia porcellus [7] and 12% in the assay filed under Cavia porcellus [22].

The values above are taken from ChEMBL document CHEMBL1143568, “A new class of selective myocardial calcium channel modulators. 2. Role of the acetal chain in oxadiazol-3-one derivatives” (J Med Chem, 2005).
